Data from publication PMC11289669, “BAR502/fibrate conjugates: synthesis, biological evaluation and metabolic profile” (Frontiers in Chemistry, 2024).
Several values for one entry are separate records, joined by “and”; a condition that tells them apart may be missing. Equal values may be shown once.

Experiments:
[1] = Chemical stability in HCl buffer, PBS buffer and culture medium by LC-MS; assay type: physicochemical; details: 10 μM
Description: Chemical stability in HCl Buffer, PBS buffer and culture medium (EMEM) was evaluated by LC-MS dissolving compound 1 at 10 μM (final concertation) in cited buffers and injecting aliquots removed from incubations at different time points. Microsomal stability was evaluated employing 50 mM potassium phosphate buffer (pH 7.4) containing 0.15 mg of Human liver microsomes (Sigma-Aldrich, St. Louis, MO, United States) 5 mM MgCl2, 1 mM NADPH, 5 mM glucose 6-phosphate, 0.4 U·mL^−1 glucose 6-phosphate dehydrogenase. Compounds were tested at 1 µM final concentration. Aliquots, removed at different time points, were diluted with ice-cold acetonitrile and analyzed by LC-MS.

[2] = system: 3T3-L1 cells; experiment: 3T3-L1 preadipocyte differentiation, adipogenic marker gene expression (qRT-PCR); assay type: cell-based, murine; details: differentiation medium (DIM), 7 days, 10 µM
Description: The 3T3-L1 cells were cultured in Dulbecco’s modified Eagle’s medium (DMEM; Euroclone), supplemented with 10% fetal bovine serum, 1% l-glutamine, 100 U/mL penicillin, and 100 μg/mL streptomycin, at 37 °C. Preadipocytes of 3T3-L1 cells were plated at 1.7 × 10^6 cells in T75 flasks, and grown to confluence. Two days after reaching confluence (day 0), the cells were stimulated with differentiation medium (DIM), either alone (DMEM, 10% FBS, 500 μM 3-isobutyl-1-methylxanthine, 1 μM dexamethasone, […]), or in combination with BAR502 and clofibrate at the concentration of 5 µM or with compound 1 (10 µM). On day 3, the DIM was replaced by insulin medium (DMEM, 10% fetal bovine serum, […]) alone or with the compounds. On day 7 cells were recovered.
Total mRNA extraction from U937 and 3T3.L1 was performed using Tri-Reagent (Zymo Research) and Direct-zol™ RNA MiniPrep w/Zymo-Spin™ IIC Columns (Zymo Research, Irvine, CA). […] The relative mRNA expression was calculated accordingly to the ΔCt method. […]

[3] = biological target: T1, PPARα (Homo sapiens, UniProt Q07869); experiment: AlphaScreen coactivator (SRC-1) recruitment assay on PPARα; assay type: biochemical; details: AlphaScreen SRC-1 recruitment; compounds at 50 µM (footnote); fenofibrate = 100%
T1 construct: 20 nM PPARα LBD GST fused (Thermo Scientific); purchased Thermo Scientific
T1 sequence (Q07869 239-466 limits assumed): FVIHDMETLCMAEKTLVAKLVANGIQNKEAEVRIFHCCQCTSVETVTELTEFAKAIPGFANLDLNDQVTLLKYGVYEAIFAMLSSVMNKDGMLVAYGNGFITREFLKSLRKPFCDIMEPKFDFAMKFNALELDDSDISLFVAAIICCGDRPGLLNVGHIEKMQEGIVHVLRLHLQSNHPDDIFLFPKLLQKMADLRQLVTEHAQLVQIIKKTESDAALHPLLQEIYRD
Description: Compounds’ ability to mediate cofactor recruitment was evaluated by employing AlphaScreen GST Detection Kit (PerkinElmer). Particularly, FXR agonism was evaluated employing 10 nM FXR-LBD GST-fused (Thermo Scientific) and 30 nM of biotinylated SRC1 peptide ([…]) in the presence of 20 μg/mL donor and acceptor beads and in buffer containing 50 mM Tris-HCl (pH7.4), 20 mM KCl, 1 mM DTT, and 0.1% BSA. For PPARα assay, a buffer containing 50 mM MOPS, 50 mM NaF, 0.05 mM CHAPS, and 0.05% BSA (pH = 7.4) was used, and 20 nM PPARα LBD GST fused (Thermo Scientific) and 60 nM of biotinylated SRC1 peptide were employed. Both acceptor and donor beads were added to reach 20 μg/mL final concentration. Incubations were performed in a final volume of 25 μL employing 384 wells Optiplate and Alpha signal was measured with Envision 2,105 (Perkin Elmer) multimode plate reader. […]

SMILES | Chemical stability in HCl buffer ([1]; HCl buffer, 2h) | Chemical stability in PBS buffer ([1]; PBS buffer pH 7.4, 8 h) | Chemical stability in culture medium ([1]; culture medium (EMEM), 8 h) | Expression of markers of adipocyte differentiation (Adiponectin, Pparγ, Cebp) [2] | PPARα efficacy (% vs. fenofibrate) [3]
CC[C@@H]1C2C[C@H](O)CC[C@]2(C)C2CC[C@@]3(C)C(CC[C@@H]3[C@H](C)CCOC(=O)C(C)(C)Oc3ccc(Cl)cc3)C2[C@@H]1O (some centres unmarked) [Compound 1] | stable | stable | stable | reduction in the expression of all markers of adipocyte differentiation | –
CC[C@H]1[C@@H](O)[C@@H]2[C@H](CC[C@]3(C)[C@@H]([C@H](C)CCO)CC[C@@H]23)[C@@]2(C)CC[C@@H](O)C[C@@H]12 [BAR502, 6α-ethyl-3α,7α-dihydroxy-24-nor-5β-cholan-23-ol] | – | – | – | – | 36% and 36 ± 12%
